According to the supplement of paper PMC5579334:

Columns and labels:
[1] = test system: HS-PSS; assay: drug sensitivity score (DSS, CellTiter-Glo viability, 72 h) (DSS (dimensionless)); higher = more sensitive; extreme values may be limits of the assay
Method in brief: (§1)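 After seeding 750–1000 cells per well of MPNST cell lines or primary human Schwann cells into 384-well plates preprinted with each compound at five concentrations in 10-fold steps, plates were kept 72 h at 37 °C, 5% CO2. Viability was read as CellTiter-Glo ATP luminescence relative to vehicle and positive-control wells, with duplicates averaged where present. The data were fitted with four-parameter logistic models. Drug sensitivity score and relative IC50, censored at the top concentration, derive from the fits, and percent inhibition refers to the top concentration.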

[2] = test system: HS-Sch-2; assay: as above
Method in brief: as §1

[3] = test system: YST-1; assay: as above
Method in brief: as §1

[4] = test system: HS-PSS; assay: drug sensitivity score (DSS, CellTox-Green cytotoxicity, 72 h) (DSS (dimensionless)); higher = more cytotoxic; extreme values may be limits of the assay
Method in brief: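 For 72 h at 37 °C, MPNST cell lines and primary human Schwann cells were exposed in 384-well plates to five 10-fold compound dilutions. CellTox-Green, added before seeding at a final 1:1000 dilution, gave fluorescence from DNA released by disrupted cells. Signals were scaled to vehicle and positive-control wells, cultures failing plate quality control were left out, and four-parameter logistic fits were applied. Relative IC50 and drug sensitivity score were derived from the fits, with IC50 censored at the top concentration.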

[5] = test system: HS-PSS; assay: % inhibition of CellTiter-Glo viability at highest tested concentration (72 h), relative to DMSO and benzethonium chloride controls; higher = more inhibition
Method in brief: as §1

[6] = test system: HS-Sch-2; assay: as above
Method in brief: as §1

[7] = test system: YST-1; assay: as above
Method in brief: as §1

| Compound | drug sensitivity score [1] | drug sensitivity score [2] | drug sensitivity score [3] | drug sensitivity score [4] | % inhibition [5] [%] | % inhibition [6] [%] | % inhibition [7] [%] |
| --- | --- | --- | --- | --- | --- | --- | --- |
| CS(=O)(=O)c1ccc(-c2cnc(N)c(C(=O)Nc3ccccc3)n2)cc1 [VE-821] (max concentration tested 10000 nM) | 0.05 | 0 | 0 | 0 | 10.4 | 5.62 | 7.49 |
| CCn1c(=O)c(-c2ccc(Cl)cc2Cl)cc2cnc(Nc3ccc(N4CCNCC4)c(F)c3)nc21 [FRAX486] (max concentration tested 5000 nM) | 3.36 | 9.15 | 0 | 0 | 11.5 | 47.6 | -6.01 |
| Cc1cccc(CC(=O)N2CCc3c2ccc(-c2cn(C)c4ncnc(N)c24)c3F)n1 (max concentration tested 2500 nM) | 0.96 | 0.16 | 0.36 | 0 | 29.6 | 16.1 | 14.4 |
| N#CC(c1ccnc(OCc2ccc(CN3CCOCC3)cc2)n1)c1nc2ccccc2s1 (stereo not given) [Bentamapimod] (max concentration tested 10000 nM) | 6.75 | 3.69 | 2.11 | 1.1 | 75.6 | 58.6 | 26.9 |
| CN(C)C1CCN(C(=O)c2ccc(NC(=O)Nc3ccc(-c4nc(N5CCOCC5)nc(N5CCOCC5)n4)cc3)cc2)CC1 [Gedatolisib] (max concentration tested 1000 nM) | 17.4 | 12 | 19.4 | 0 | 73.4 | 80.3 | 93.2 |
| OC(CC1c2ccccc2-c2cncn21)C1CCCCC1 (stereo not given) [NLG919] (max concentration tested 10000 nM) | 0 | 0 | 0 | 0 | 7.55 | 0.68 | 10.1 |
| CN1CCC(CNc2ccc3ncc(-c4cccc(OC(F)(F)F)c4)n3n2)CC1 [SGI-1776] (max concentration tested 10000 nM) | 6.88 | 7.09 | 9 | 6.8 | 101 | 101 | 101 |
| CNC(=O)c1ccccc1Nc1nc(Nc2ccc3c(c2OC)CCC[C@H](N2CCN(CCO)CC2)C3)ncc1Cl (max concentration tested 5000 nM) | 15 | 7.99 | 8.71 | 2.99 | 86.5 | 98.5 | 82.8 |
| NS(=O)(=O)NCCNc1nonc1/C(=N/O)Nc1ccc(F)c(Br)c1 [Epacadostat] (max concentration tested 10000 nM) | 0 | 0.29 | 0 | 0 | 6.08 | 13.3 | 12.5 |
| CCOc1ccn(-c2ccc(F)cc2)c(=O)c1C(=O)Nc1ccc(Oc2ccnc(N)c2Cl)c(F)c1 (max concentration tested 2500 nM) | 1.43 | 0 | 0 | 0 | 15.6 | 4.22 | 2.08 |
| CNc1nc(Nc2cn(C(C)(C)C#N)nc2C)ncc1C(F)(F)F [GNE-0877] (max concentration tested 1000 nM) | 2.29 | 0 | 0 | 0 | 23.4 | 5.3 | -4.9 |
| NC[C@@](O)(c1ccc(Cl)cc1)c1ccc(-c2cn[nH]c2)cc1 (max concentration tested 10000 nM) | 7.75 | 8.76 | 4.33 | 6.26 | 97.9 | 91.8 | 73.8 |
| CC[C@H](NC(=O)[C@H](C)NC)C(=O)N1C[C@@H](O)C[C@H]1Cc1c(-c2[nH]c3cc(F)ccc3c2C[C@@H]2C[C@H](O)CN2C(=O)[C@H](CC)NC(=O)[C@H](C)NC)[nH]c2cc(F)ccc12 [Birinapant] (max concentration tested 1000 nM) | 0 | 0 | 0 | 0 | 10.7 | 6.12 | 2.35 |
| CC1CCC(n2c3cnccc3c3cnc(Nc4ccc5c(n4)CCN(C(=O)CO)C5)nc32)CC1 (stereo not given) [AMG-925] (max concentration tested 1000 nM) | 0 | 0.03 | 0.02 | 0 | 9.07 | 12.2 | 6.95 |
| CCCNC(=O)Nc1ccc(Oc2ncnc3cc(OC)c(OC)cc23)cc1Cl [KRN-633] (max concentration tested 2500 nM) | 0 | 0 | 0 | 0 | 10.5 | -7.09 | 7.23 |
| CN(C)Cc1c(C(=O)NCCOc2ccc(C(=O)NO)cc2)oc2ccccc12 [Abexinostat] (max concentration tested 10000 nM) | 16.5 | 20.5 | 24.9 | 7.74 | 96.2 | 101 | 101 |
| O=c1cc(N2CCOCC2)oc2c(-c3ccccc3)cccc12 (max concentration tested 100000 nM) | 7.1 | 7.3 | 12 | 2.67 | 69.6 | 72.3 | 96.1 |
| Cc1cc(-c2ncc(CC(=O)Nc3ccc(-c4cnccn4)cn3)cc2C)ccn1 [NVP-LGK974] (max concentration tested 10000 nM) | 3.51 | 3 | 0 | 0 | 45.4 | 52.2 | 1.59 |
| Cc1nc(N)sc1-c1ccnc(Nc2ccc(N3CCOCC3)cc2)n1 [CYC-116] (max concentration tested 10000 nM) | 6.5 | 4.97 | 8.36 | 0 | 65.9 | 54.2 | 58.8 |
| O=C(c1cccc(Cl)c1F)N1CCN(Cc2cccc(Nc3nccs3)n2)CC1 [MK-8745] (max concentration tested 2500 nM) | 0.32 | 3.17 | 4.21 | 0.89 | 17.5 | 48.5 | 36.5 |
| Nc1nc(Nc2ccc3c(c2)CC[C@@H](N2CCCC2)CC3)nn1-c1cc2c(nn1)-c1ccccc1CCC2 [BGB324] (max concentration tested 10000 nM) | 2.95 | 14.4 | 7.59 | 0 | 23.7 | 99.5 | 99.3 |
| COc1ccc2c(OCc3nnc4ccc(-c5ccccc5)nn34)ccnc2c1 [AMG-208] (max concentration tested 2500 nM) | 0.98 | 0 | 0 | 0 | 9.98 | 7.53 | -2.81 |
| COc1cc2ncnc(Oc3cccc(NC(=O)Nc4cc(C(C)(C)C(F)(F)F)on4)c3)c2cc1OC (max concentration tested 10000 nM) | 0 | 0 | 0.17 | 0 | 3.34 | -3.7 | 3.62 |
| CCN(CC)Cc1ccc2cc(COC(=O)Nc3ccc(C(=O)NO)cc3)ccc2c1 [Givinostat] (max concentration tested 1000 nM) | 3.45 | 8.81 | 13.1 | 1.98 | 69.4 | 98 | 98.9 |
| COc1ccc(-c2ccc3ncc4c(c3c2)n(-c2ccc(N3CCNCC3)c(C(F)(F)F)c2)c(=O)n4C)cn1 [NVP-BGT226] (max concentration tested 1000 nM) | 15.3 | 21.4 | 19.7 | 3.94 | 99.1 | 98.2 | 99.5 |
| O=C(Nc1cccc(NC(=O)c2cccc(O)c2O)c1)c1cccc(O)c1O [MST-312] (max concentration tested 10000 nM) | 4.53 | 10.8 | 5.45 | 0.02 | 86.4 | 90.7 | 96.2 |
| CNC(=O)c1nn(C)c2c1C(C)(C)Cc1cnc(Nc3ccc(N4CCN(C)CC4)cc3)nc1-2 [Milciclib] (max concentration tested 10000 nM) | 9.77 | 9.72 | 16.6 | 0.17 | 79.3 | 96 | 101 |
| N#Cc1ccc2[nH]c(O)c(-c3ccc(CN4CCOCC4)cn3)c2c1 [AZD-1080] (max concentration tested 10000 nM) | 2.89 | 3.74 | 0 | 0 | 43.5 | 77.1 | 4.49 |
| O=C(NOCC1CC1)c1ccc(F)c(F)c1Nc1ccc(I)cc1Cl (max concentration tested 10000 nM) | 0.51 | 5.05 | 1.6 | 0 | 21.5 | 55.9 | 24.6 |
| C[C@@H]1COC(Nc2ccc3ncnc(Nc4ccc(OCc5nccs5)c(Cl)c4)c3c2)=N1 [Varlitinib] (max concentration tested 10000 nM) | 5.07 | 2.41 | 3.23 | 0 | 42 | 30.6 | 27.7 |
